Where “and” joins values, the source holds several entries; their conditions need not be identical. Identical values can stand only once. Inconclusive results and toxic doses are left out.
Test system: P388 leukemia ip, CD2F1 mice, survival T/C
Assay: NCI In Vivo Anticancer Drug Screen. Data for tumor model P388 Leukemia (intraperitoneal) in CD2F1 (CDF1) mice
Conditions: endpoint: median survival time, higher = longer survival
In short: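 Mice carrying the transplanted tumor received test compound or vehicle. Survival was recorded in each group, and the value is the treated-group measurement divided by that of the vehicle-treated control group.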

[1] = dose: 50.0 mg/kg/injection, schedule: Q01DX005 (ip), vehicle: Klucel (hydroxypropylcellulose) (HPC)
[2] = dose: 100.0 mg/kg/injection, schedule: Q01DX005 (ip), vehicle: Klucel (hydroxypropylcellulose) (HPC)
[3] = dose: 200.0 mg/kg/injection, schedule: Q01DX005 (ip), vehicle: Klucel (hydroxypropylcellulose) (HPC)
[4] = dose: 60.0 mg/kg/injection, schedule: Q01DX005 (ip), vehicle: saline with Tween-80
[5] = dose: 120.0 mg/kg/injection, schedule: Q01DX005 (ip), vehicle: saline with Tween-80
[6] = dose: 240.0 mg/kg/injection, schedule: Q01DX005 (ip), vehicle: saline with Tween-80
[7] = dose: 50.0 mg/kg/injection, schedule: Q01DX009 (ip), vehicle: saline with Tween-80
[8] = dose: 100.0 mg/kg/injection, schedule: Q01DX009 (ip), vehicle: saline with Tween-80
[9] = dose: 200.0 mg/kg/injection, schedule: Q01DX009 (ip), vehicle: saline with Tween-80

SMILES: O=C(OCCCN1CCCC1)C(c1ccccc1)C1C=CCC1 (configuration not stated)
- T/C (dose: 6.25 mg/kg/injection, schedule: Q01DX009 (ip), vehicle: Klucel (hydroxypropylcellulose) (HPC)): 100 % of control
- T/C (dose: 12.5 mg/kg/injection, schedule: Q01DX009 (ip), vehicle: Klucel (hydroxypropylcellulose) (HPC)): 98 % of control
- T/C (dose: 25.0 mg/kg/injection, schedule: Q01DX009 (ip), vehicle: Klucel (hydroxypropylcellulose) (HPC)): 100 % of control
- T/C (dose: 50.0 mg/kg/injection, schedule: Q01DX009 (ip), vehicle: Klucel (hydroxypropylcellulose) (HPC)): 101 % of control
- T/C (dose: 100.0 mg/kg/injection, schedule: Q01DX009 (ip), vehicle: Klucel (hydroxypropylcellulose) (HPC)): 95 % of control
- T/C (dose: 200.0 mg/kg/injection, schedule: Q01DX009 (ip), vehicle: Klucel (hydroxypropylcellulose) (HPC)): 100 % of control
- T/C (dose: 400.0 mg/kg/injection, schedule: Q01DX009 (ip), vehicle: Klucel (hydroxypropylcellulose) (HPC)): 100 % of control

SMILES: COc1cccc2c1C(=O)c1c(O)c3c(c(O)c1C2=O)C[C@@](O)(/C(CO)=N/NC(=O)c1ccccc1)C[C@@H]3OC1CC(N)C(O)C(C)O1 (some centres not stated)
- T/C (dose: 0.12 mg/kg/injection, schedule: Q01DX009 (ip), vehicle: water): 103 % of control
- T/C (dose: 0.25 mg/kg/injection, schedule: Q01DX009 (ip), vehicle: water): 99 % of control
- T/C (dose: 0.5 mg/kg/injection, schedule: Q01DX009 (ip), vehicle: water): 150 % of control
- T/C (dose: 0.8 mg/kg/injection, schedule: Q01DX009 (ip), vehicle: saline): 112 % of control
- T/C (dose: 1.0 mg/kg/injection, schedule: Q01DX009 (ip), vehicle: water): 154 % of control and 169 % of control
- T/C (dose: 1.4 mg/kg/injection, schedule: Q01DX009 (ip), vehicle: saline): 112 % of control
- T/C (dose: 2.0 mg/kg/injection, schedule: Q01DX009 (ip), vehicle: water): 154 % of control and 171 % of control and 190 % of control
- T/C (dose: 2.3 mg/kg/injection, schedule: Q01DX009 (ip), vehicle: saline): 113 % of control
- T/C (dose: 3.9 mg/kg/injection, schedule: Q01DX009 (ip), vehicle: saline): 118 % of control
- T/C (dose: 4.0 mg/kg/injection, schedule: Q01DX009 (ip), vehicle: water): 172 % of control and 180 % of control and 212 % of control
- T/C (dose: 6.0 mg/kg/injection, schedule: Q04DX003 (ip), vehicle: water): 96 % of control
- T/C (dose: 8.0 mg/kg/injection, schedule: Q01DX009 (ip), vehicle: water): 201 % of control and 230 % of control and 390 % of control
- T/C (dose: 8.6 mg/kg/injection, schedule: Q01DX009 (ip), vehicle: saline): 163 % of control
- T/C (dose: 10.8 mg/kg/injection, schedule: Q01DX009 (ip), vehicle: saline): 187 % of control
- T/C (dose: 18.0 mg/kg/injection, schedule: Q01DX009 (ip), vehicle: saline): 90 % of control
- T/C (dose: 96.0 mg/kg/injection, schedule: Q04DX003 (ip), vehicle: water): 114 % of control

SMILES: COC(=O)NP1(=O)NCc2ccccc2CN1
- T/C [1]: 100 % of control
- T/C [2]: 94 % of control
- T/C [3]: 94 % of control

SMILES: Nc1nc(-c2ccccc2)c(CCCNc2ccc(C(=O)NC(CCC(=O)O)C(=O)O)cc2)c(=O)[nH]1 (configuration not stated)
- T/C [1]: 102 % of control
- T/C [2]: 102 % of control
- T/C [3]: 106 % of control

SMILES: COc1nc(NC2OC(CO)C(O)C(O)C2O)c(C(=O)CCl)c(=O)n1C (configuration not stated)
- T/C [4]: 92 % of control
- T/C [5]: 87 % of control
- T/C [6]: 95 % of control and 96 % of control

SMILES: CC1(CCl)Nc2ccccc2C(=O)N1c1ccc(F)cc1 (configuration not stated)
- T/C [7]: 103 % of control
- T/C [8]: 95 % of control
- T/C [9]: 95 % of control

SMILES: C=CC1C(C[C@@H]2c3cc(O)c(O)cc3CCN2C(C)=O)C(C(=O)OC)=CO[C@H]1OC1OC(CO)C(O)C(O)C1O (some centres not stated)
- T/C (dose: 60.0 mg/kg/injection, schedule: Q01DX005 (ip), vehicle: saline): 105 % of control
- T/C (dose: 120.0 mg/kg/injection, schedule: Q01DX005 (ip), vehicle: saline): 103 % of control
- T/C (dose: 240.0 mg/kg/injection, schedule: Q01DX005 (ip), vehicle: saline): 104 % of control

SMILES: Cc1cc2c(c(=O)o1)C1(C)CC(C)(O2)c2c(cc(C)oc2=O)O1
- T/C [4]: 99 % of control
- T/C [5]: 95 % of control
- T/C [6]: 89 % of control

SMILES: CC(F)C(C)C(N)C(=O)O (configuration not stated)
- T/C [7]: 86 % of control
- T/C [8]: 91 % of control
- T/C [9]: 99 % of control

SMILES: C=C1C(=O)OC2C(OC(=O)CC)CCCC12 (configuration not stated)
- T/C (dose: 60.0 mg/kg/injection, schedule: Q01DX005 (ip), vehicle: Klucel (hydroxypropylcellulose) (HPC)): 95 % of control
- T/C (dose: 120.0 mg/kg/injection, schedule: Q01DX005 (ip), vehicle: Klucel (hydroxypropylcellulose) (HPC)): 98 % of control
- T/C (dose: 240.0 mg/kg/injection, schedule: Q01DX005 (ip), vehicle: Klucel (hydroxypropylcellulose) (HPC)): 110 % of control

Source: PubChem BioAssay AID330 (DTP/NCI, 2004)
